Source: patent publication US20230301896A1, “COMPOSITION FOR PENETRATING SUGAR BASED DELIVERY SYSTEM” (Evonik Operations GmbH, priority 2015, published 2023)

Assays:
Inner forearm = test: Reduction of irritation potential, 5 D Intravitaltomography (taum); assay type: in vivo, human; details: 0.3% of retinol occlusively applied onto inner forearm; taum at start point and 48 h after application
Description: Reduction of Irritation can be detected by any known analytical test method which can be e.g. 5D IVT, ELISA, Patch Test. HET Cam Test using skin, skin models, cells. This effect depends on the active lipophilic ingredient encapsulated.
Data which measured in accordance with the method as described in “From Morphology To Biochemical State—Intravital Multiphoton Fluorescence Lifetime Imaging Of Inflamed Human Skin”, by Volker Huck et al. published in www.nature.com/scientificreports, 23 Mar. 2016; the disclosure of which is hereby incorporated by reference. Referring now to FIGS. 3 and 4, FIGS. 3 and 4 illustrate the Taum measurement. The delivery system of the invention can achieve Tau values of about 100 ps to about 3000 ps, about 300 ps to about 2500 ps and in some cases about 500 ps to about 1500 ps in the Stratum granulosum and Stratum spinosum.

[1] = HPLC determination of retinol (stabilization of active ingredient); assay type: physicochemical; details: UV 323 nm
Protocol: Active ingredients can be detected by any known analytical test method which can be e.g. HPLC, GG, ESR depending on the composition. This effect depends on the active lipophilic ingredient encapsulated.
Test Method used: HPLC Chromatography
Instrumentation: Liquid Chromatograph Agilent 1100 with autosampler, UV-detector
Column: Reprosil C-18-AQ; 5μ, 200*4 mm (Fa. Dr. Maisch) with precolumn: • Column Temp.: 20° C. • Mobile Phase: Acetonitrile/THF/Water (54/38/8 v/v/v) • Flow Rate: 1.0 ml/min • Gradient Program: Isocratic • Detection: UV-Detector; 323 nm • Injection Volume: 5 μl; Autosampler • Retention Time: 1.6 min
Reagents: • Acetonitrile (Roth, gradient grade) • THF (Roth, gradient grade) • 2-Propanol (Roth, gradient grade) • Water, twice-distilled • Retinol 50C (BASF, Cosmetic Quality, approx, 50%)—standard • (If not stated otherwise the reagents are used as purchased without any further purification)

CC1=C(/C=C/C(C)=C/C=C/C(C)=C/CO)C(C)(C)CCC1 [retinol, Retinol]
irritation potential (Inner forearm): significantly higher
stabilization of Retinol (HPLC) [1]: degrades
